Our source for the AC50, EC50 and IC50 values is ChEMBL document CHEMBL1201862, “PubChem BioAssay data set” (2004).

Calls of active or inactive are those of the source. Cut-off read from the data, not from the text of the source, for most assays here: actives have a measured EC50 and inactives only a lower limit.

Assay [1] can be described thus: Shn3 3'UTR reporter inhibitors, dose response, cell-based, Clone20 osteoblasts, firefly luciferase, cherry-picked (AID 624132).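 Note: firefly luciferase luminescence from reporter carrying the Shn3 3'UTR in osteoblasts.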 It counts as functional.
Assay [2] can be described thus: control 3'UTR Renilla luciferase suppression, dose response, counter-screen for Shn3 inhibitor project, cell-based, Clone20-Shn3RL, cherry-picked (AID 624133). It counts as functional. On the technique in general: Counterscreens check selectivity or assay interference.
Assay [3] is described as follows: HepG2 cell cytotoxicity, dose response, cytotoxicity control for Shn3 inhibitor project, CellTiter-Glo, cherry-picked (AID 624134). It counts as functional, cell-based.
In assay [4] the target is T1, Corticotropin-releasing factor receptor 2/Corticotropin-releasing factor-binding protein (Homo sapiens, UniProt P24387+Q13324).
T1 sequence (Q13324 whole entry): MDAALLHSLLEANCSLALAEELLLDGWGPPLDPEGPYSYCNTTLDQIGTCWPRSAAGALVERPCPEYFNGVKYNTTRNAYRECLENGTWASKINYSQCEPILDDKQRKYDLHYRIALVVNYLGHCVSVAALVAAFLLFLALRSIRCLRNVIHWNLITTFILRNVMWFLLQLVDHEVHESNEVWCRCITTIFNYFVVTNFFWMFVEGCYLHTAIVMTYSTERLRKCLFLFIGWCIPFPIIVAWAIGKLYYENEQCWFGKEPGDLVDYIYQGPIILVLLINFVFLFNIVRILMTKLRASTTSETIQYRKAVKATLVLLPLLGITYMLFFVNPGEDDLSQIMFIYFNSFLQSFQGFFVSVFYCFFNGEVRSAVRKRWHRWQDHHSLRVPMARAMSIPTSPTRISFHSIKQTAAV
T1 sequence (P24387 whole entry): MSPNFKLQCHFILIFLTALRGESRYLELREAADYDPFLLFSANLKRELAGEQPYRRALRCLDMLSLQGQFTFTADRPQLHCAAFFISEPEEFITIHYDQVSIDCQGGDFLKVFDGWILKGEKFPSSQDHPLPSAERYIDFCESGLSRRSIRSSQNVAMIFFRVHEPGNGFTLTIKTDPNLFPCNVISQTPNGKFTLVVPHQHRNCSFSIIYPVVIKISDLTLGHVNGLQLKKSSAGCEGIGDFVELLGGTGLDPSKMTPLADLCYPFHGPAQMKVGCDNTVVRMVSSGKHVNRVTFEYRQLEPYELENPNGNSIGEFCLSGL
Put plainly: activators of CRF receptor 2 with binding protein – uHTS hits, confirmation (AID 602473). As to conditions: read-out: EC50_Mean. It counts as functional.

The nature of assay [5]: inhibitors of intracellular T. cruzi replication, confirmation, NIH3T3 host cells, beta-gal luminescence (AID 2044).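 Note: intracellular parasites grown in NIH/3T3 mouse fibroblasts as host cells; luminescent beta-galactosidase reporter signal from transgenic T. cruzi replicating inside host cells; inhibitors lower the luminescence signal.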 It counts as functional, cell-based.
Assay [6] in a line: cytotoxicity toward NIH3T3 fibroblasts, dose response, counter-screen, cell-based, ATP luminescence, mouse fibroblasts (AID 2010).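 Note: cells exposed to compound for about 90 hours before reading.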 It counts as functional.
The target of assay [7] is T2, Rac GTPase-activating protein 1 (Homo sapiens, UniProt Q9H0H5).
T2 sequence (Q9H0H5 whole entry): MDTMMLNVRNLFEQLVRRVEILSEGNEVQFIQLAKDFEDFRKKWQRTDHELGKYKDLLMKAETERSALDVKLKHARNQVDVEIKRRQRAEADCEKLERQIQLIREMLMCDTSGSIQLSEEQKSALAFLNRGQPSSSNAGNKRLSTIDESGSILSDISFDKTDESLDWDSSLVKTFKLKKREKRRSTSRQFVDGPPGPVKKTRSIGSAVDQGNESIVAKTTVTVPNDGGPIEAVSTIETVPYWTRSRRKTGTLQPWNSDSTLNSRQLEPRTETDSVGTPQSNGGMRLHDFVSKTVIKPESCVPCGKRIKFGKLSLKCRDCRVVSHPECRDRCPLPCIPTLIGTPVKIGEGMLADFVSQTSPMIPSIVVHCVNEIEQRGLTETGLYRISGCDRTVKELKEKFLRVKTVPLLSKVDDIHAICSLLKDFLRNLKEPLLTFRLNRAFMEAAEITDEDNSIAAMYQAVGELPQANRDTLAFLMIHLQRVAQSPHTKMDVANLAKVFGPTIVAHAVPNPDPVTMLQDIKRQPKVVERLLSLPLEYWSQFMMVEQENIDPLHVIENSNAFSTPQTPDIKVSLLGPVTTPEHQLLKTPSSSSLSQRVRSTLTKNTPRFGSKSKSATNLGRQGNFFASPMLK
Briefly: MgcRacGAP GTPase-activating activity inhibitors, confirmation, biochemical, ADP Hunter fluorescence, primary and confirmatory (AID 624330). It counts as functional.

The next assay deals with H4. Put plainly: Luminescence Cell-Based Dose Response HTS to Identify Activators of 5'UTR Stem-Loop Driven Prion Protein mRNA Translation in H4 Neuroglioblastoma Cells. [Related pubchem assays: 1829 (Project Summary), 1814 (Primary HTS)]. It counts as functional. The following applies: Homo sapiens.
The nature of assay [8]: Luminescence Cell-Based Dose Response HTS to Identify Activators of Luciferase Translation or Activity in H4 […] Cells. [Related pubchem assays: 1829 (Project Summary), 1814 (Primary HTS)]. It counts as functional.
The nature of assay [9]: Luminescence Cell-Based Dose Confirmation HTS to Identify Activators of 5'UTR Stem-Loop Driven Alpha-Synuclein mRNA Translation in H4 Neuroglioblastoma Cells. [Related pubchem assays: 1829 (Project Summary), 1814 (Primary HTS)]. It counts as functional.
A further assay has as its target Large T antigen (Simian virus 40, UniProt P03070). It counts as functional, Betapolyomavirus macacae.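 Note: Confirmatory-stage PubChem screen for compounds that inhibit SV40 T antigen.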
A short description of assay [10]: inhibitors of SNCA 5'UTR-driven reporter translation, confirmation, H4 neuroglioma cells, luminescence (AID 1988). It counts as functional, cell-based.
The nature of assay [11]: inhibitors of firefly luciferase expression or activity, dose response, H4 neuroglioma cells, luminescence (AID 1990). It counts as functional, cell-based.
Assay [12] can be described thus: Luminescence Cell-Based Dose Response HTS to Identify Inhibitors of 5'UTR Stem-Loop Driven Prion Protein mRNA Translation in H4 Neuroglioblastoma Cells. [Related pubchem assays: 1827 (Project Summary), 1813 (Primary HTS)]. It counts as functional.
The next assay has as its system INS1. Briefly: beta cell apoptosis inhibitors, cytokine rescue, dose response, luminescence, retest (AID 449756).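 Note: cell death triggered by IL-1 beta plus TNF-alpha plus IFN-gamma mixture; protective hits raise ATP signal compared with cytokine alone wells.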 It counts as functional, cell-based. As to conditions: Rattus norvegicus.

Large T antigen, sequence (P03070 whole entry): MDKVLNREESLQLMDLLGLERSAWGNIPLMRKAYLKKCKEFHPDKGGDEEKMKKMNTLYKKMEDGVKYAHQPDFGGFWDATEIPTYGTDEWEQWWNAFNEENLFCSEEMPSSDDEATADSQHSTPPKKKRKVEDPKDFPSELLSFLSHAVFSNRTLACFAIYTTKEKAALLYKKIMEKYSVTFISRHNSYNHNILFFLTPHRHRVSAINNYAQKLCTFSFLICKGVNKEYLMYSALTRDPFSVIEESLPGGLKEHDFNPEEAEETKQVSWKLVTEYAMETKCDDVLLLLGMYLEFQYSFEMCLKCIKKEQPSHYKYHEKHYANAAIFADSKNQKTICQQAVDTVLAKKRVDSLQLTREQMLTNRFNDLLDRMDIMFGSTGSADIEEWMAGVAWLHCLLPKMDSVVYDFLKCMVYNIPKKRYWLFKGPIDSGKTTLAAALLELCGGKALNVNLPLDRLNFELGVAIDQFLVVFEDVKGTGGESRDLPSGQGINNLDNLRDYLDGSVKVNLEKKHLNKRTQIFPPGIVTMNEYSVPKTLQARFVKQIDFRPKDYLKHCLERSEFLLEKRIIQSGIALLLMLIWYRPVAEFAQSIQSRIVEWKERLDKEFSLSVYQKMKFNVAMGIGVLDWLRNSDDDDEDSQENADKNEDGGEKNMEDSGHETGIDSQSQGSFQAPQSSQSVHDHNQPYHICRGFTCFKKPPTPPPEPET

As a reminder, the AC50 is the concentration giving half of the maximal activity seen. On to `COc1ccc(COc2ccccc2C(=O)NCc2ccccc2)cc1F`, for which the values for the concentration at half-maximal activity (AC50) in assay [1], in [2] and in assay [3] were 4.76 µM (active), 10.1 µM (active) and 52.4 µM (active), respectively.
Consider `C[C@H](NC(=O)c1[nH]cnc1C(=O)NCc1ccc(CNC(=O)OC(C)(C)C)cc1)c1ccccc1`, for which the figures for the concentration at half-maximal activity (AC50) in assay [1], in assay [2] and in assay [3] were 11.7 µM (active), 14.9 µM (active) and > 70 µM (inactive), respectively.
For `CCOC(=O)c1ccc(NCn2c(=O)oc3ccccc32)cc1`, the EC50 in assay [4] was > 53 µM (inactive).
As for `O=C(Nc1ncc(S(=O)(=O)c2ccc([N+](=O)[O-])cc2)s1)c1cccc2ccccc12`, the EC50 was 4.23 µM (active) in assay [4], 0.221 µM (active) in [5] and > 60 µM (not active) in assay [6].
As a reminder, the IC50 is the concentration that gives 50% inhibition. For `Clc1ccccc1CNCc1ccc2c(c1)OCO2`, the half-maximal inhibitory concentration (IC50) in [7] is 257 µM (active).
Regarding `c1ccc(-c2cn(CC3CCCCC3)nn2)cc1`, the EC50 was > 120 µM (inconclusive) in the assay with H4, 0.236 µM (active) in [8] and 0.146 µM (active) in assay [9].
As to `CCS(=O)(=O)C1=NN2C(=N)/C(=C\c3ccc(OC(=O)c4ccco4)c(Br)c3)C(=O)N=C2S1`, the IC50 at Large T antigen is > 100 µM (active).
`CC(C)C(OC(=O)c1ccccc1)c1nccc2ccccc12` (configuration not stated): the EC50 with H4 is 39.5 µM (active); in assay [8], 17.8 µM (active); in [9], 21.5 µM (active).
Take `OCC1CCCN(C(=S)Nc2ccc(Nc3ccccc3)cc2)C1` (configuration not stated): the figures for the half-inhibitory concentration (IC50) (on Large T antigen; in [7]) were 8.16 µM (active) and 41.8 µM (active), respectively.
Take `CC(=O)OCC1OC(n2cc(F)c(=O)[nH]c2=O)C(OC(C)=O)C1OC(C)=O` (configuration not stated): the EC50 with H4 is > 120 µM (not active); in assay [8], 117 µM (active); in assay [9], > 120 µM (not active).
Consider `c1ccc(CNc2ncnc3c2ncn3C2CCCCO2)cc1` (configuration not stated), for which the figures for the EC50 (with H4; in [8]; in assay [9]) were > 120 µM (not active), 4.67 µM (active) and 5.99 µM (active), respectively.
Take `CN1CN(C)c2cccc3cccc1c23`: the half-maximal inhibitory concentration (IC50) on Large T antigen is 73.9 µM (active).
Turning to `O=C(Nc1ccc(-c2cn3c(n2)SCC3)cc1)c1ccc2ccccc2n1`, the EC50 in the assay with H4 was 16.8 µM (active); in assay [8], 24 µM (active); in assay [9] it was 15.5 µM (active).
For `Nc1ccc(Nc2ccccc2)c(Cl)c1`, in [7], the IC50 was 17.3 µM (active).
For the compound `Cc1ccc(-n2nnnc2-c2cnc(-c3cccnc3)nc2C(F)(F)F)cc1`, the AC50 is 5.89 µM (active) in assay [1], 23 µM (active) in [2] and 57.4 µM (active) in assay [3].
For `Cc1cc(-c2cc(C)c(N)c(C)c2)cc(C)c1N`, the IC50 in [7] is 10.8 µM (active).
In the case of `COc1ccc(-c2cc3ccc(OCc4nn[nH]n4)cc3oc2=O)cc1`, the EC50 in assay [10] is 13.3 µM (active); in [11], 13.9 µM (active); in assay [12] it was 14.6 µM (active).
Consider `O=c1c2ccccc2nc(/C=C/c2ccc(O)cc2)n1-c1ccccc1O`, for which the IC50 in assay [7] was 62.5 µM (active).
Take `O=C(c1cc(-c2ccc3c(c2)OCO3)on1)N1CCCCC1`: the figures for the EC50 in assay [10] and in assay [12] were 7.22 µM (inconclusive) and 10.3 µM (active), respectively.
Take `Cc1ccc(NC(=O)Cc2nn(C)c(=O)c3ccccc23)cc1F`: the AC50 in [1] was 0.73 µM (active); in assay [2], 2.3 µM (active); in assay [3], 3.46 µM (active); in the assay with INS1, 3.98 µM (active).
As to `COc1ccccc1CNc1nc(NCc2ccccc2OC)c2sccc2n1`, the half-maximal activity concentration (AC50) is 6.33 µM (active) in [1], 9.79 µM (active) in [2] and 22.1 µM (active) in assay [3].
With `CCN(CC)S(=O)(=O)c1cccc(NC(=O)CNC2CCCCCC2)c1`, the IC50 in assay [7] was 185 µM (active).
Consider `COc1cccc(/C=N/NC(=O)c2[nH]nc3c2CCc2ccccc2-3)c1`, for which the EC50 was > 120 µM (not active) in the assay with H4, > 60 µM (not active) in assay [8] and > 120 µM (not active) in [9].
`Oc1nc(COc2ccc(Cl)cc2Cl)nc2ccccc12`: the values for the EC50 (in the assay with H4; in assay [8]; in assay [9]) were 0.148 µM (active), 0.107 µM (active) and 0.125 µM (active), respectively.
For `Cc1nn(-c2ccccn2)c2c1-c1nc(N)ncc1CC2`, the figures for the EC50 in assay [8] and in [9] were 1.98 µM (active) and 12.3 µM (active), respectively.
Turning to `CCc1ccc(OC(=O)Nc2ccccc2)cc1`, the values for the EC50 (in the assay on H4; in [8]; in assay [9]) were 7.7 µM (active), > 120 µM (not active) and 6.4 µM (active), respectively.
Take `CCCCCn1c(=O)c(C(=O)NC(C)c2ccccc2)c(O)c2ccccc21` (configuration not stated): the AC50 in assay [1] is 11.7 µM (active); in [2], 6.26 µM (active); in assay [3], > 70 µM (inactive); in the assay with INS1, 5.84 µM (active).
On to `O=C(NCCNCC(O)COc1ccc(O)cc1)N1CCOCC1` (configuration not stated), for which, in assay [7], the half-maximal inhibitory concentration (IC50) is 118 µM (active).
On to `CC(C)OC(=O)Cn1nnc2c(cnn2-c2ccccc2)c1=O`, for which the figures for the EC50 (in the assay with H4; in assay [8]; in assay [9]) were 20.7 µM (active), 13.1 µM (active) and 13.4 µM (active), respectively.
Take `CC(C)CC(NC(=O)c1ccccc1)C(=O)N/N=C/c1ccco1` (configuration not stated): in [4], the EC50 is 4.81 µM (active).
On to `Cc1nnsc1-c1c(C(=O)Oc2ccccc2)c(C)nn1-c1ccccc1`, for which the EC50 is 19.8 µM (active) in assay [10], 18.8 µM (active) in [11] and > 120 µM (not active) in assay [12].
Take `O=C(CN1CCN(c2ccc(O)cc2)CC1)NC(=O)NCc1ccco1`: the half-maximal inhibitory concentration (IC50) in [7] is 52.6 µM (active).
In the case of `Cc1cc(NC(=O)c2cccnc2)ccc1NC(=O)c1cc2ccccc2o1`, the EC50 in [10] was 20.6 µM (active); in assay [11], 18.6 µM (active); in assay [12] it was 17.7 µM (active).
For `Nc1ccc(N=Nc2ccc(N)cc2)cc1`, in [7], the IC50 was 22 µM (active).
Take `O=c1[nH]c(=O)c2nnc(N/N=C\c3ccc(O)cc3)nc2[nH]1`: the IC50 at Large T antigen is 16.8 µM (active).
Still for that read-out and setting: the figure for `CN(C)/C=C(\C#N)C(=O)Nc1ccc(O)cc1F` is 17.6 µM (active).
On to `Cn1c2ccccc2c2cc(C(=O)N3CCN(CCO)CC3)sc21`, for which the results for the EC50 (in the assay with H4; in [8]; in assay [9]) were 33.8 µM (active), 15.3 µM (active) and > 120 µM (not active), respectively.
